In PubChem BioAssay AID1963968 (Molecular Pharmacology Branch, DTP, NCI, 2024):

Test system: 945468-187-T-J3-PDC spheroids with HUVEC/MSC, viability
Experiment: Anticancer human tumor 945468-187-T-J3-PDC patient-derived rectal carcinoma cell line growth inhibition [PI3K]
Conditions: for IC50: curve of first compound; for viability, T/C: stronger effect = lower value
Method in brief: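 Combination activity was assessed by viability in multicellular tumor spheroids carrying HUVEC and MSC components. Agents were tested with PI3K inhibitors from a Cmax-based top dose (or 10 microM) downward in half-log increments.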
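Note: spheroids exposed to agents for 7 days before viability read.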
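Throughout, for viability, T/C: 100% = DMSO vehicle control viability.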

Compound: CC1(C)CCC(Nc2ncc(C(F)(F)F)c(-c3c[nH]c4c(P(C)(C)=O)c(C#N)ccc34)n2)CN1 (configuration not stated) + COc1c(OCCCN2CCOCC2)ccc2c3n(c(=NC(=O)c4cnc(N)nc4)nc12)CCN3
- IC50 (second compound 0.00316 µM): 3350 nM
- IC50 (second compound 0.01 µM): 31.6 nM
- IC50 (second compound 0.0316 µM): 1250 nM
- IC50 (second compound 0.1 µM): < 31.6 nM
- IC50 (second compound 0.316 µM): < 31.6 nM
- IC50 (second compound 1 µM): < 31.6 nM
- viability, T/C (second compound 0.00316 µM, first compound 0.0316 µM): 55.6%
- viability, T/C (second compound 0.00316 µM, first compound 0.1 µM): 40.7%
- viability, T/C (second compound 0.00316 µM, first compound 0.316 µM): 39%
- viability, T/C (second compound 0.00316 µM, first compound 1 µM): 49.6%
- viability, T/C (second compound 0.00316 µM, first compound 3.16 µM): 78.7%
- viability, T/C (second compound 0.00316 µM, first compound 10 µM): 6.58%
- viability, T/C (second compound 0.01 µM, first compound 0.0316 µM): 45.7%
- viability, T/C (second compound 0.01 µM, first compound 0.1 µM): 48.1%
- viability, T/C (second compound 0.01 µM, first compound 0.316 µM): 41.9%
- viability, T/C (second compound 0.01 µM, first compound 1 µM): 56%
- viability, T/C (second compound 0.01 µM, first compound 3.16 µM): 55.7%
- viability, T/C (second compound 0.01 µM, first compound 10 µM): 5.22%
- viability, T/C (second compound 0.0316 µM, first compound 0.0316 µM): 56.8%
- viability, T/C (second compound 0.0316 µM, first compound 0.1 µM): 47.4%
- viability, T/C (second compound 0.0316 µM, first compound 0.316 µM): 52%
- viability, T/C (second compound 0.0316 µM, first compound 1 µM): 48.1%
- viability, T/C (second compound 0.0316 µM, first compound 3.16 µM): 46.9%
- viability, T/C (second compound 0.0316 µM, first compound 10 µM): 5.62%
- viability, T/C (second compound 0.1 µM, first compound 0.0316 µM): 40.4%
- viability, T/C (second compound 0.1 µM, first compound 0.1 µM): 39.2%
- viability, T/C (second compound 0.1 µM, first compound 0.316 µM): 34.3%
- viability, T/C (second compound 0.1 µM, first compound 1 µM): 35.4%
- viability, T/C (second compound 0.1 µM, first compound 3.16 µM): 40.3%
- viability, T/C (second compound 0.1 µM, first compound 10 µM): 2.67%
- viability, T/C (second compound 0.316 µM, first compound 0.0316 µM): 27.9%
- viability, T/C (second compound 0.316 µM, first compound 0.1 µM): 26.6%
- viability, T/C (second compound 0.316 µM, first compound 0.316 µM): 23.2%
- viability, T/C (second compound 0.316 µM, first compound 1 µM): 20.5%
- viability, T/C (second compound 0.316 µM, first compound 3.16 µM): 20.8%
- viability, T/C (second compound 0.316 µM, first compound 10 µM): 5.77%
- viability, T/C (second compound 1 µM, first compound 0.0316 µM): 15.7%
- viability, T/C (second compound 1 µM, first compound 0.1 µM): 17.2%
- viability, T/C (second compound 1 µM, first compound 0.316 µM): 17.5%
- viability, T/C (second compound 1 µM, first compound 1 µM): 14.6%
- viability, T/C (second compound 1 µM, first compound 3.16 µM): 11.4%
- viability, T/C (second compound 1 µM, first compound 10 µM): 0.98%
